Laboratory results from ChEMBL document CHEMBL6103644, “Efficient and Selective Biosynthesis of a Precursor-Directed FK506 Analogue: Paving the Way for Click Chemistry” (J Nat Prod, 2025).
The source made the active and inactive calls. No cut-off for these calls is given here.

Experiments:
[1] = Cytotoxicity against C57BL/6 mouse CD4+ T cells assessed as increase in cell death at >10 nM incubated for 4 days by Live/Dead staining based flow cytometry; type: toxicity; conditions: 96 h, 0.01 µM, time 4 day
[2] = system: CD4+ T cell; experiment: Immunosuppressive activity in C57BL/6 mouse CD4+ T cells co-cultured with allogeneic bone marrow-derived BALB/c mouse dendritic cells assessed as reduction in CD4+ T cell numbers at cell cycle 4 at 5 nM incubated for 4 days by CellTrace Violet staining based flow cytometry; type: functional; conditions: time 4.0 day
[3] = Cytotoxicity against C57BL/6 mouse CD4+ T cells assessed as increase in cell death at 5 nM incubated for 4 days by Live/Dead staining based flow cytometry; type: toxicity; conditions: 96 h, 0.005 µM, time 4 day
[4] = Cytotoxicity against C57BL/6 mouse CD4+ T cells assessed as increase in cell death at 0.5 to 100 nM incubated for 4 days by Live/Dead staining based flow cytometry; type: toxicity; conditions: 96 h, 0.1 µM, dose 0.5-100 nM, time 4 day
[5] = system: CD4+ T cell; experiment: Immunosuppressive activity in C57BL/6 mouse CD4+ T cells co-cultured with allogeneic bone marrow-derived BALB/c mouse dendritic cells assessed as inhibition of CD4+ T cell proliferation at 1 nM incubated for 4 days by CellTrace Violet staining based flow cytometry; type: functional; conditions: time 4.0 day

Structure (SMILES) | Activity [1] | Activity [2] | Activity [3] | Activity [4] | inhibition [5]
C#CC[C@@H]1/C=C(\C)C[C@H](C)C[C@H](OC)[C@H]2O[C@@](O)(C(=O)C(=O)N3CCCC[C@H]3C(=O)O[C@H](/C(C)=C/[C@@H]3CC[C@@H](O)[C@H](OC)C3)[C@H](C)[C@@H](O)CC1=O)[C@H](C)C[C@@H]2OC | Toxic | Active | Non-toxic | – | –
C=CC[C@@H]1/C=C(\C)C[C@H](C)C[C@H](OC)[C@H]2O[C@@](O)(C(=O)C(=O)N3CCCC[C@H]3C(=O)O[C@H](/C(C)=C/[C@@H]3CC[C@@H](O)[C@H](OC)C3)[C@H](C)[C@@H](O)CC1=O)[C@H](C)C[C@@H]2OC [TACROLIMUS ANHYDROUS] | – | – | – | Toxic | Active
